≈ marks a conversion by molar mass, not a printed value.
Columns and labels:
[1] = biological target: Insulin-like growth factor 1 receptor (Homo sapiens, UniProt P08069); assay: Inhibition of IGF1R (unknown origin)
[2] = Drug exposure in triple transgenic C57BL6 alzheimer disease mouse plasma at 30 mg/kg, po measured after 5 hrs; type: ADME, organism-based
[3] = biological target: Cytoplasmic tyrosine-protein kinase BMX (Homo sapiens, UniProt P51813); assay: Inhibition of BMX (unknown origin)
[4] = Permeability of compound at pH 7.4 incubated for 4 hrs by PAMPA assay; type: ADME; details: read-out: permeability
[5] = Drug exposure in triple transgenic C57BL6 alzheimer disease mouse brain at 30 mg/kg, po measured after 5 hrs; type: ADME, organism-based; details: read-out: Ct
[6] = Aqueous solubility of compound in potassium phosphate buffer at pH 7.4 at 1 mg/ml measured after 18 to 24 hrs by HPLC-UV based analysis; type: physicochemical; details: time 18-24 hrs
[7] = biological target: AP2-associated protein kinase 1 (Homo sapiens, UniProt Q2M2I8); assay: Inhibition of AAK1 (unknown origin)
[8] = biological target: Tyrosine-protein kinase BTK (Homo sapiens, UniProt Q06187); assay: Inhibition of BTK (unknown origin)
[9] = Unbound fraction in triple transgenic C57BL6 alzheimer disease model mouse brain homogenate at 30 mg/kg, po measured after 5 hrs; type: ADME, organism-based
[10] = Plasma protein binding in mouse assessed as unbound fraction at 10 uM measured for 5 hrs by equilibrium dialysis based LC-MS/MS analysis; type: ADME, cell-free
[11] = biological target: Casein kinase II subunit alpha (Homo sapiens, UniProt P68400); assay: Inhibition of CK2A1 (unknown origin)
[12] = Permeability of compound at pH 5.5 incubated for 4 hrs by PAMPA assay; type: ADME; details: read-out: permeability
[13] = MRT in 8 hr fasted C57BL6 mouse at 2 mg/kg, iv; type: ADME, organism-based; details: in vivo
[14] = biological target: Mast/stem cell growth factor receptor Kit (Homo sapiens, UniProt P10721); assay: Inhibition of cKIT (unknown origin)
[15] = Metabolic stability in mouse liver microsomes assessed as parent compound remaining at 0.5 uM incubated for 10 mins by LC-MS/MS analysis; type: ADME, Microsome; details: read-out: Stability
[16] = biological target: Tyrosine-protein kinase Lyn (Homo sapiens, UniProt P07948); assay: Inhibition of LynA (unknown origin)
[17] = biological target: Tyrosine-protein kinase Lck (Homo sapiens, UniProt P06239); assay: Inhibition of LCK (unknown origin)
[18] = biological target: Tyrosine-protein kinase SYK (Homo sapiens, UniProt P43405); assay: Inhibition of SYK (unknown origin)
[19] = biological target: Interleukin-1 receptor-associated kinase 1 (Homo sapiens, UniProt P51617); assay: Inhibition of IRAK1 (unknown origin)
[20] = Inhibition of tau 4R1N phosphorylation (unknown origin) at S396 residue transfected in human U2OS cells coexpressing GFP-tagged beta catenin incubated overnight by high content imaging assay
[21] = biological target: Tyrosine-protein kinase TXK (Homo sapiens, UniProt P42681); assay: Inhibition of TXK (unknown origin)
[22] = biological target: Casein kinase II subunit alpha' (Homo sapiens, UniProt P19784); assay: Inhibition of CK2A2 (unknown origin)
[23] = Volume of distribution at steady state in 8 hr fasted C57BL6 mouse at 2 mg/kg, iv; type: ADME, organism-based; details: in vivo, read-out: Vdss
[24] = biological target: Interleukin-1 receptor-associated kinase 4 (Homo sapiens, UniProt Q9NWZ3); assay: Inhibition of IRAK4 (unknown origin)
P-glycoprotein (ABCB1) = P-glycoprotein (ABCB1) (Homo sapiens, UniProt P08183); assay: Substrate activity at P-glycoprotein in human Caco-2 cells assessed as efflux ratio of permeability across basolateral to apical side over apical to basolateral side at 3 uM incubated for 2 hrs by LC-MS/MS analysis; type: ADME, cell-based
[25] = Plasma protein binding in human assessed as unbound fraction at 10 uM measured for 5 hrs by equilibrium dialysis based LC-MS/MS analysis; type: ADME, cell-free
[26] = biological target: Non-receptor tyrosine-protein kinase TYK2 (Homo sapiens, UniProt P29597); assay: Inhibition of TYK2 (unknown origin)
[27] = Solubility of compound in fed state simulated intestinal fluid of pH 5 at 1 mg/ml measured after 18 to 24 hrs by HPLC-UV based analysis; type: ADME; details: time 18-24 hrs
[28] = biological target: Mitogen-activated protein kinase 14 (Homo sapiens, UniProt Q16539); assay: Inhibition of p38alpha (unknown origin)
[29] = biological target: Protein kinase C theta type (Homo sapiens, UniProt Q04759); assay: Inhibition of PKCtheta (unknown origin)
[30] = biological target: Tyrosine-protein kinase JAK1 (Homo sapiens, UniProt P23458); assay: Inhibition of JAK1 (unknown origin)
[31] = Permeability across basolateral to apical side in human Caco-2 cells at 3 uM incubated for 2 hrs by LC-MS/MS analysis; type: ADME, cell-based; details: read-out: permeability
[32] = Clearance in 8 hr fasted C57BL6 mouse at 2 mg/kg, iv; type: ADME, organism-based; details: in vivo
[33] = Oral bioavailability in 8 hr fasted C57BL6 mouse at 10 mg/kg; type: ADME, organism-based; details: in vivo
[34] = biological target: Cyclin-dependent kinase 5 (Homo sapiens, UniProt Q00535); assay: Inhibition of CDK5 (unknown origin)
[35] = Permeability across apical to basolateral side in human Caco-2 cells at 3 uM incubated for 2 hrs by LC-MS/MS analysis; type: ADME, cell-based; details: read-out: permeability
[36] = biological target: MAP kinase-activated protein kinase 2 (Homo sapiens, UniProt P49137); assay: Inhibition of MK2 (unknown origin)
[37] = biological target: Platelet-derived growth factor receptor beta (Homo sapiens, UniProt P09619); assay: Inhibition of PDGFRbeta (unknown origin)
[38] = Solubility of compound in fasted state simulated intestinal fluid of pH 6.5 at 1 mg/ml measured after 18 to 24 hrs by HPLC-UV based analysis; type: ADME; details: time 18-24 hrs
[39] = biological target: Glycogen synthase kinase-3 alpha (Homo sapiens, UniProt P49840); assay: Inhibition of full length GST-tagged human recombinant GSK3-alpha using FL-KRREILSRRP[ps]ERYR-NH2 as substrate incubated for 20 hrs
[40] = Ratio of drug level in brain to plasma of triple transgenic C57BL6 alzheimer disease mouse at 30 mg/kg, po measured after 5 hrs; type: ADME, organism-based; details: read-out: BPR
Aurora kinase A = Aurora kinase A (Mus musculus, UniProt P97477); assay: Inhibition of mouse AURA
[41] = Aqueous solubility of compound in potassium phosphate buffer at pH 1 at 1 mg/ml measured after 18 to 24 hrs by HPLC-UV based analysis; type: physicochemical; details: time 18-24 hrs
[42] = biological target: Tyrosine-protein kinase JAK2 (Homo sapiens, UniProt O60674); assay: Inhibition of JAK2 (unknown origin)
Aurora kinase B = Aurora kinase B (Homo sapiens, UniProt Q96GD4); assay: Inhibition of Aurora B (unknown origin)
[43] = Inhibition of N-terminal 6-His tagged human recombinant GSK3-beta H355L mutant using FL-KRREILSRRP[ps]ERYR-NH2 as substrate incubated for 20 hrs
Mus musculus = assay: Antialzheimer activity against triple transgenic C57BL6 mouse model assessed as reduction in tau phosphorylation at S396 at 30 mg/kg, po measured 5 hrs post dose by ELISA relative to control; type: functional; parameters: scale not given: the % may be the effect or the level left
[44] = biological target: Cyclin-dependent kinase 2 (Homo sapiens, UniProt P24941); assay: Inhibition of CDK2 (unknown origin)
[45] = Unbound brain-to-plasma concentration ratio in triple transgenic C57BL6 alzheimer disease mouse model at 30 mg/kg, po measured after 5 hrs; type: ADME, organism-based; details: read-out: K(p,uu,brain)
[46] = biological target: Tyrosine-protein kinase ITK/TSK (Homo sapiens, UniProt Q08881); assay: Inhibition of ITK (unknown origin)
[47] = Half life in 8 hr fasted C57BL6 mouse at 2 mg/kg, iv; type: ADME, organism-based; details: in vivo
[48] = Metabolic stability in human liver microsomes assessed as parent compound remaining at 0.5 uM incubated for 10 mins by LC-MS/MS analysis; type: ADME, Microsome; details: read-out: Stability
[49] = biological target: Serine/threonine-protein kinase pim-1 (Homo sapiens, UniProt P11309); assay: Inhibition of PIM1 (unknown origin)
[50] = Cmax in 8 hr fasted C57BL6 mouse at 10 mg/kg, po; type: ADME, organism-based; parameters: dose 10 mg/kg, route po; details: in vivo
[51] = AUC tot in 8 hr fasted C57BL6 mouse at 10 mg/kg, po; type: ADME, organism-based; parameters: dose 10 mg/kg, route po; details: in vivo
[52] = biological target: Ribosomal protein S6 kinase alpha-1 (Homo sapiens, UniProt Q15418); assay: Inhibition of RSK1 (unknown origin)
Chain of Ribosomal protein S6 kinase alpha-1 (Q15418 whole entry): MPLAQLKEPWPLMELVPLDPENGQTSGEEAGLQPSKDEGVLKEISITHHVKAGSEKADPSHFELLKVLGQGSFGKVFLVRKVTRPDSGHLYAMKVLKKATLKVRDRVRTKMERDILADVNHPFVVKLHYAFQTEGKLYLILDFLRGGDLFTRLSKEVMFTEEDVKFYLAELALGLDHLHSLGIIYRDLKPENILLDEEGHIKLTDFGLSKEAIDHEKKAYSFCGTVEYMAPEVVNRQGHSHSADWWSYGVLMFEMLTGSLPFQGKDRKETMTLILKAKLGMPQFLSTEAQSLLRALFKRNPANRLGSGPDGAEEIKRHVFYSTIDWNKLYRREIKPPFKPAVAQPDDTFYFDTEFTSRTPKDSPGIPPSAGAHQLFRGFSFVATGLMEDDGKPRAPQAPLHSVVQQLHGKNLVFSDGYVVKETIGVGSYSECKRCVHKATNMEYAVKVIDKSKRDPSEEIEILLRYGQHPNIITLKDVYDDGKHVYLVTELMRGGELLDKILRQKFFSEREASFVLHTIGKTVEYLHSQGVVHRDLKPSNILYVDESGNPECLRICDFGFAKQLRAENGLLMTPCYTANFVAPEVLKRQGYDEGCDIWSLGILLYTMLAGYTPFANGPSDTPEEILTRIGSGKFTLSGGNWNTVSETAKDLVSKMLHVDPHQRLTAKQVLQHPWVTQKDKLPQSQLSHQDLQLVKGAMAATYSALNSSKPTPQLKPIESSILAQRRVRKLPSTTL

Chain of Mast/stem cell growth factor receptor Kit (P10721 whole entry): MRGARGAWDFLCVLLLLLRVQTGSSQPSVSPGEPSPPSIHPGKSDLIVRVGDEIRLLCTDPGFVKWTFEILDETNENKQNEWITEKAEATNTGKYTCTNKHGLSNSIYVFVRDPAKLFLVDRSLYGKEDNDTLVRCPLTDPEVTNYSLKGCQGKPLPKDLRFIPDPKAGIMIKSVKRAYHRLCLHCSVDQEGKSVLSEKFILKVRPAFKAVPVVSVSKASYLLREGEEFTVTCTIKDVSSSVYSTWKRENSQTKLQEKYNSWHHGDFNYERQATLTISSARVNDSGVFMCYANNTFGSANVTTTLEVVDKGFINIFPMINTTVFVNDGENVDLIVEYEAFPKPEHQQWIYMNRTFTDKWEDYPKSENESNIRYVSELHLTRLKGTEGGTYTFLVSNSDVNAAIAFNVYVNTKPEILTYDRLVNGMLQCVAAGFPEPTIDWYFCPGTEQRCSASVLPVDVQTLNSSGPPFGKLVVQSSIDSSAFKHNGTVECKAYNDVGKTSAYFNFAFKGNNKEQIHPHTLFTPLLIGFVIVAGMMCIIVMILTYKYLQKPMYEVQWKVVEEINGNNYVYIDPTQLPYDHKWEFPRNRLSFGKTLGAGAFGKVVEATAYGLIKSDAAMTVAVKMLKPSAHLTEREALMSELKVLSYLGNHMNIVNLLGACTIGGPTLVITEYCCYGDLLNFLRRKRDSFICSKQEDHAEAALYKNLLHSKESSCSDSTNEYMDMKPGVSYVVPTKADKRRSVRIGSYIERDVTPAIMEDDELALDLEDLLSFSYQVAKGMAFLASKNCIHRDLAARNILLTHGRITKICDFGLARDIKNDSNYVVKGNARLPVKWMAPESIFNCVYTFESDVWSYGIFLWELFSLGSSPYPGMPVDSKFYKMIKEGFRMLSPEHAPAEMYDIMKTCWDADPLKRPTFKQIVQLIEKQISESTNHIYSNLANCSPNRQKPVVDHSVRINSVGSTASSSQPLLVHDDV
Chain of Cytoplasmic tyrosine-protein kinase BMX (P51813 whole entry): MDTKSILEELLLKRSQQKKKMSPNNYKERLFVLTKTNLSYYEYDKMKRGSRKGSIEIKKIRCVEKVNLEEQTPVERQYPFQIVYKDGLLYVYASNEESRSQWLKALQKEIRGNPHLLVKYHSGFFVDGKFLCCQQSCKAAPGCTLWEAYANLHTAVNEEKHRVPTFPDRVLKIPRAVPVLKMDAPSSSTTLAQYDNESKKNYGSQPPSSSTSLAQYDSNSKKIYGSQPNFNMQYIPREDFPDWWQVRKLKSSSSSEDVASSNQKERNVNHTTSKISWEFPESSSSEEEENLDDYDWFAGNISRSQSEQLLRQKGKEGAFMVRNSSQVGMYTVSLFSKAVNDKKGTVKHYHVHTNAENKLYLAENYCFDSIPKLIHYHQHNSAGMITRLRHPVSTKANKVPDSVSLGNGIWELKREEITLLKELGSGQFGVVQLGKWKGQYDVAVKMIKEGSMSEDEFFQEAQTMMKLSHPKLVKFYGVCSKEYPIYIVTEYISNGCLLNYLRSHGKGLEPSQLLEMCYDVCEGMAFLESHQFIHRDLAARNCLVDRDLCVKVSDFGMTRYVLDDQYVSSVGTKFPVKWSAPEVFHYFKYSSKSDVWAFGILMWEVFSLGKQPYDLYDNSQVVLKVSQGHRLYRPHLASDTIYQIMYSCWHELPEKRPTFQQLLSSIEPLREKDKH
Chain of Protein kinase C theta type (Q04759 whole entry): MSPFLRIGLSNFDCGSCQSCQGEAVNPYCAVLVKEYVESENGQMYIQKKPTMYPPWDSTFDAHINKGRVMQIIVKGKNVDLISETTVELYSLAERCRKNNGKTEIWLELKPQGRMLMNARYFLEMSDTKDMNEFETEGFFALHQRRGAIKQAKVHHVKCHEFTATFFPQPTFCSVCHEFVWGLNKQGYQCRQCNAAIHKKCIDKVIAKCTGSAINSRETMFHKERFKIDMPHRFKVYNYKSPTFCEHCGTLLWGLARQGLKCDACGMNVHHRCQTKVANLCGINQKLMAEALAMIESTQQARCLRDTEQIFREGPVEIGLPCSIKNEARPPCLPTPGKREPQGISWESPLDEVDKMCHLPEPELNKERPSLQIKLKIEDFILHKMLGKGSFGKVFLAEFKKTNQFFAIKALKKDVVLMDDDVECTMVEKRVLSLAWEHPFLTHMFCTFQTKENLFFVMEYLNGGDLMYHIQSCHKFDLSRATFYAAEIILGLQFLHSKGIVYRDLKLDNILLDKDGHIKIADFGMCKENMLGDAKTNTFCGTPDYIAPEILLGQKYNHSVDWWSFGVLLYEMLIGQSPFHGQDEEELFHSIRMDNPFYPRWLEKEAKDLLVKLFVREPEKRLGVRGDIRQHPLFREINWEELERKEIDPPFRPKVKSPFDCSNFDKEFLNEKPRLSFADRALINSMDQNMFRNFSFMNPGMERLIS
Chain of MAP kinase-activated protein kinase 2 (P49137 whole entry): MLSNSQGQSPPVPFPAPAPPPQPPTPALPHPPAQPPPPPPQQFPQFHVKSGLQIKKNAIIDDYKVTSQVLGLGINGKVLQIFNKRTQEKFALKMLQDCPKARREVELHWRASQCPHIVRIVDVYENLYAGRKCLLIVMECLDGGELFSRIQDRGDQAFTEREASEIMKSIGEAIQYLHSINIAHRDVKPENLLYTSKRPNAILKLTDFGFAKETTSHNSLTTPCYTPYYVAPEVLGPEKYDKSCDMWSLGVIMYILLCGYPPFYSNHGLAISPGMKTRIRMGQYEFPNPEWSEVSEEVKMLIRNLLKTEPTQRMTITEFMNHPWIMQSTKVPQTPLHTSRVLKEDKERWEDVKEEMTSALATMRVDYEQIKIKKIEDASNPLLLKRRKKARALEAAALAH
Chain of Interleukin-1 receptor-associated kinase 4 (Q9NWZ3 whole entry): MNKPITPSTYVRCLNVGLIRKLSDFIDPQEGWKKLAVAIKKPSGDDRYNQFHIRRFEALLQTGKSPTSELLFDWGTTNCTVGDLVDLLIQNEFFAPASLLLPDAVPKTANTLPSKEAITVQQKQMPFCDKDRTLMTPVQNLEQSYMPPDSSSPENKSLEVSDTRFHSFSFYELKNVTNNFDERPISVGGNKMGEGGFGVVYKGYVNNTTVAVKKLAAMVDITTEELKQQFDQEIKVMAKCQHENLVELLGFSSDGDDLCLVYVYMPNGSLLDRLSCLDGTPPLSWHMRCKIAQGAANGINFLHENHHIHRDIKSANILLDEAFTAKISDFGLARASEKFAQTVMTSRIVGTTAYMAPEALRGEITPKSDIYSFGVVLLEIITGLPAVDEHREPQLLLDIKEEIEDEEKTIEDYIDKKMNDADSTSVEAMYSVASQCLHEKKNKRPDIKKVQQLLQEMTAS
Chain of Tyrosine-protein kinase BTK (Q06187 whole entry): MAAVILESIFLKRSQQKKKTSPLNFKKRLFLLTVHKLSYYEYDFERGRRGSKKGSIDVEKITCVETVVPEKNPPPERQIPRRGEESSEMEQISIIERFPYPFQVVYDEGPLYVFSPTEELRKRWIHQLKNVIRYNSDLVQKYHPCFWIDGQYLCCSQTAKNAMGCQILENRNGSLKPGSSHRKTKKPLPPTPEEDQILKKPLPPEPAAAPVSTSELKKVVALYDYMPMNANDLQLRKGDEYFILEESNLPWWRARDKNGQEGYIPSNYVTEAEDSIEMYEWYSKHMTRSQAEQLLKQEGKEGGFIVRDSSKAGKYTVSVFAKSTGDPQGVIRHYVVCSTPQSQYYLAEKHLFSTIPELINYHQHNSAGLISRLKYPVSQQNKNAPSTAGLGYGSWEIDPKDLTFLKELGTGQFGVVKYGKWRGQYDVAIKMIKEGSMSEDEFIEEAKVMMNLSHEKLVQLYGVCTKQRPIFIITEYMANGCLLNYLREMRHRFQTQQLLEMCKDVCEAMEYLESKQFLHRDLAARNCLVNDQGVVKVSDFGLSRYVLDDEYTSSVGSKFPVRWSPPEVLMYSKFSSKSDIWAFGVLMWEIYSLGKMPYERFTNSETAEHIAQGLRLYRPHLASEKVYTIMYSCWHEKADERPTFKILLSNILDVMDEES
Chain of Mitogen-activated protein kinase 14 (Q16539 whole entry): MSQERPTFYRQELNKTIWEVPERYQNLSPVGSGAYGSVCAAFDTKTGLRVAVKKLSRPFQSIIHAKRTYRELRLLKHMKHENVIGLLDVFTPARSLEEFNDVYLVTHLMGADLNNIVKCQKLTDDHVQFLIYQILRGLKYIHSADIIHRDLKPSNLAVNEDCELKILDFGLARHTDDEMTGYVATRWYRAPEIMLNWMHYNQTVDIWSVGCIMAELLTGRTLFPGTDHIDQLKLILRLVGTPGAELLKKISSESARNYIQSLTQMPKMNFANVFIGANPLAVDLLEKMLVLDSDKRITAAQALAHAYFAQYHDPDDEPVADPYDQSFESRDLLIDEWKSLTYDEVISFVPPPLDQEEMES

- IC50 [1]: > 50000 nM
- concentration at 5 h [2]: 3.8 µM
- IC50 [3]: > 2000 nM
- Papp at 4 h [4]: 80.6 ×10⁻⁶ cm/s
- concentration at 5 h [5]: 1.3 µM
- solubility [6]: 14 µg/mL (≈ 33.8 µM)
- IC50 [7]: 200 nM
- IC50 [8]: > 2000 nM
- fraction unbound at 5 h [9]: 0.009
- fraction unbound at 5 h, 10 µM [10]: 0.009
- IC50 [11]: > 2000 nM
- Papp at 4 h [12]: 100 ×10⁻⁶ cm/s
- MRT [13]: 4.8 h
- IC50 [14]: > 50000 nM
- remaining at 10 min, 0.5 µM [15]: 7%
- IC50 [16]: > 2000 nM
- IC50 [17]: > 2000 nM
- IC50 [18]: > 2000 nM
- IC50 [19]: > 2000 nM
- IC50 [20]: 58 nM
- IC50 [21]: > 2000 nM
- IC50 [22]: > 2000 nM
- Vd [23]: 1.1 L/kg
- IC50 [24]: > 2000 nM
- efflux ratio at 2 h, 3 µM (P-glycoprotein (ABCB1)): < 1
- fraction unbound at 5 h, 10 µM [25]: 0.008
- IC50 [26]: > 2000 nM
- solubility [27]: 788 µg/mL (≈ 1900 µM)
- IC50 [28]: > 2000 nM
- IC50 [29]: 360 nM
- IC50 [30]: > 2000 nM
- Papp B→A at 2 h, 3 µM [31]: 7.1 ×10⁻⁶ cm/s
- clearance [32]: 3.8 mL/min/kg
- bioavailability [33]: 64%
- IC50 [34]: 6400 nM
- Papp A→B at 2 h, 3 µM [35]: 13.8 ×10⁻⁶ cm/s
- IC50 [36]: > 50000 nM
- IC50 [37]: > 50000 nM
- solubility [38]: 21 µg/mL (≈ 50.7 µM)
- IC50 [39]: 0.35 nM
- Kp at 5 h [40]: 0.34
- IC50 (Aurora kinase A): > 50000 nM
- solubility [41]: 1220 µg/mL (≈ 2940 µM)
- IC50 [42]: > 2000 nM
- IC50 (Aurora kinase B): > 2000 nM
- IC50 [43]: 0.73 nM
- IC50 [44]: 1400 nM
- Kp uu at 5 h [45]: 0.34
- IC50 [46]: > 2000 nM
- half-life [47]: 5.2 h
- remaining at 10 min, 0.5 µM [48]: 17%
- IC50 [49]: 380 nM
- Cmax [50]: 7.8 µM
- AUC [51]: 68.3 µM·h
- IC50 [52]: > 50000 nM
SMILES: CC1CN(c2ccncc2NC(=O)c2ccnn3cc(-c4ccccc4)nc23)CCO1 (racemic)
- Activity (Mus musculus): 52%

— ChEMBL document CHEMBL5247659, “Design, Structure-Activity Relationships, and In Vivo Evaluation of Potent and Brain-Penetrant Imidazo[1,2-b]pyridazines as Glycogen Synthase Kinase-3β (GSK-3β) Inhibitors” (J Med Chem, 2023)
